Measurements as given in patent publication US20150080462A1, “COMPOSITIONS AND METHODS FOR THE TREATMENT OR PREVENTION OF DISORDERS RELATING TO OXIDATIVE STRESS” (THE JOHNS HOPKINS UNIVERSITY, priority 2005, published 2015).

Legend:
[1] = tested on: MCAO induced brain injury; assay: Neurological deficit score after MCAO, EC treatment; assay type: in vivo, mouse; conditions: for NDS: HO1WT mice
Description: Motor deficits were graded by sensorimotor performance or neurological score by the method of Longa et al. (Stroke. 20:84-91.1989). […] (1) no deficit, (2) forelimb weakness, (3) inability to bear weight on the affected side, (4) no spontaneous motor activity. Epicatechin (EC) was given orally (per kilogram of body weight) through gavage and precautions were taken not only to minimize the stress to animals but also careful administration of the drug solution. For pre-treatment studies, a single dose of EC was given 90 minutes before middle cerebral artery occlusion (MCAO). […] MCAO procedure was slightly modified from the methods previously published by Shah et al. (Shah, et al. in press, 2006). […] To measure relative cerebral blood flow (CBF), mice were placed in a porcine posture on a temperature controlled heat blanket (37° C.). Under an operating microscope, a 0.5-mm diameter microfiber was glued to the skull (over the area of parietal cortex) with cyanoacrylate glue (Super Glue Gel, Ross Products, Inc.) approximately 6 mm lateral and 1 mm posterior of bregma and connected to a laser-Doppler flowmeter (DRT4, Moor Instruments Ltd, Devon, England). Mice were allowed to return to supine position and a neck midline-incision was made to expose the right common carotid artery (CCA), external carotid artery (ECA), and internal carotid arteries (ICA) after dissecting in through out thyroid glands. All the arteries were separated from the vagus nerve. A specially devised method for making 7-0 Ethilon nylon filament (Ethicon, Inc., Somarville, N.J.) with 5 mm of the tip coated with silicone (Cutter Sil Light and Universal Hardener, Heraeus Kulzer, GmbH, Hanau, Germany) was employed and the filament was introduced into the ICA through the ECA stump to block the blood circulation to MCA or circle of Willis. The filament was carefully advanced up to 11 mm from the carotid artery bifurcation or until resistance was felt. […] CFB was monitored for up to 5 minutes and mice not attaining the required drop were terminated from the study. Cortical perfusion values were expressed as a percentage relative to baseline. Animals were shifted to a humidity/temperature-controlled chamber at 32° C. to maintain the body temperature during the 90 minutes of MCA occlusion, at 37° C. For reperfusion mice were briefly anesthetizing and filament was withdrawn. After suturing the neck, midline wound mice were again returned to a humidity/temperature-controlled chamber for 2 h to maintain the body temperature at 37° C. and then later shifted to their respective cages.

[2] = previous toxicological studies (Galati et al 2006); cited from earlier work
[3] = Physiological parameters (pH, PaCO2, PaO2) of mice treated with vehicle and EC; assay type: in vivo, mouse; conditions: different drug concentrations and vehicle
Experimental: In a separate cohort of mice (5 WT; 5 Nrf2^−/−) that underwent an identical stroke protocol, including CBF monitoring, blood samples were collected through a PE-10 femoral artery catheter (Intramedic; BD Diagnostic Systems, Sparks, Md.) 30 minutes before MCAO, 1 hour after initiation of MCAO, and 1 hour after reperfusion. The blood was evaluated for pH, PaO2, and PaCO2 via blood gas analysis (Rapidlab 248; Chiron Diagnostic Corporation, Norwood, Mass.). In some experiments, blood was drawn intermittently at different intervals of time; 30 minutes before MCAO, 1 h after the initiation of MCAO, and 1 h after reperfusion.

[4] = tested on: HO1 WT mice; assay: 72 h survival after MCAO, EC post-treatment; assay type: in vivo, mouse; conditions: EC 30 mg/kg after 2 h or 4.5 h of reperfusion, 10 survived with vehicle
[5] = tested on: MCAO induced brain injury; assay: Corrected infarct volume (TTC) after MCAO, EC treatment; assay type: in vivo, mouse
Experimental: After 24 or 72 h of reperfusion, mice were anesthetized, and their brains dissected out and cut into 2-mm coronal sections. Brain slices were stained with 2,3,5-triphenyltetrazolium chloride (TTC, Sigma Co, St. […] Cerebral cortex and striatum volumes in ipsilateral necrotic lesion and contralateral normal side of the brain were measured multiplying the sum of the areas by the distance between sections. Infarct volume was indirectly calculated by subtracting the volume of intact tissue in the ipsilateral hemisphere from that of the contralateral hemisphere and expressed as the percentage of infarct area to the total hemispheric area for each slice. Epicatechin (EC) was given orally (per kilogram of body weight) through gavage and precautions were taken not only to minimize the stress to animals but also careful administration of the drug solution. For pre-treatment studies, a single dose of EC was given 90 minutes before middle cerebral artery occlusion (MCAO). […] MCAO procedure was slightly modified from the methods previously published by Shah et al. (Shah, et al. in press, 2006). […] To measure relative cerebral blood flow (CBF), mice were placed in a porcine posture on a temperature controlled heat blanket (37° C.). Under an operating microscope, a 0.5-mm diameter microfiber was glued to the skull (over the area of parietal cortex) with cyanoacrylate glue (Super Glue Gel, Ross Products, Inc.) approximately 6 mm lateral and 1 mm posterior of bregma and connected to a laser-Doppler flowmeter (DRT4, Moor Instruments Ltd, Devon, England). Mice were allowed to return to supine position and a neck midline-incision was made to expose the right common carotid artery (CCA), external carotid artery (ECA), and internal carotid arteries (ICA) after dissecting in through out thyroid glands. All the arteries were separated from the vagus nerve. A specially devised method for making 7-0 Ethilon nylon filament (Ethicon, Inc., Somarville, N.J.) with 5 mm of the tip coated with silicone (Cutter Sil Light and Universal Hardener, Heraeus Kulzer, GmbH, Hanau, Germany) was employed and the filament was introduced into the ICA through the ECA stump to block the blood circulation to MCA or circle of Willis. The filament was carefully advanced up to 11 mm from the carotid artery bifurcation or until resistance was felt. […] CFB was monitored for up to 5 minutes and mice not attaining the required drop were terminated from the study. Cortical perfusion values were expressed as a percentage relative to baseline. Animals were shifted to a humidity/temperature-controlled chamber at 32° C. to maintain the body temperature during the 90 minutes of MCA occlusion, at 37° C. For reperfusion mice were briefly anesthetizing and filament was withdrawn. After suturing the neck, midline wound mice were again returned to a humidity/temperature-controlled chamber for 2 h to maintain the body temperature at 37° C. and then later shifted to their respective cages.

Compound: Oc1cc(O)c2c(c1)O[C@H](c1ccc(O)c(O)c1)[C@H](O)C2 [EC, (−)-Epicatechin]
- neurological deficit score ([1]; HO1 WT mice, EC 2.5 mg/kg pre-treatment, no difference vs vehicle): 3.3±0.29
- neurological deficit score ([1]; HO1 WT mice, EC 5 mg/kg pre-treatment): 3±0.35
- neurological deficit score ([1]; HO1 WT mice, EC 15 mg/kg pre-treatment): 2.7±0.39
- NDS ([1]; EC 30 mg/kg 6 h post-treatment, vehicle 2.3±0.16, not significant): 1.8±0.1
- neurological deficit score ([1]; HO1 WT mice, EC 30 mg/kg at 3.5 h, scored at 24 h of reperfusion, vehicle 3.5±0.26): 2.8±0.3
- neurological deficit score ([1]; HO1 WT mice, EC 30 mg/kg at 6 h, scored at 24 h of reperfusion, vehicle 3.5±0.26): 1.8±0.1
- NDS ([1]; EC 30 mg/kg post-treatment (3.5 h after MCAO), vehicle 2.3±0.1): 1.8±0.1
- neurological deficit score ([1]; HO1 WT mice, EC 30 mg/kg pre-treatment): 2.5±0.25
- neurological deficit score ([1]; Nrf2 WT mice, EC 30 mg/kg pre-treatment, 24 h, vehicle 3.1±0.26): 2.3±0.1
- neurological deficit score ([1]; Nrf2−/− mice, EC 30 mg/kg pre-treatment, 24 h, vehicle 3.5±0.1, not significant): 3.4±0.17
- safe dose [2]: up to 150 mg
- physiological parameters (pH, PaCo2, Pao2) vs vehicle [3]: no differences
- mice surviving 72 h (of 12 per group) [4]: 12 mice
- corrected infarct volume ([5]; HO1 WT mice, EC 2.5 mg/kg oral 90 min before MCAO, 24 h reperfusion, not significant): 33.8±3.3%
- corrected infarct volume ([5]; HO1 WT mice, EC 5 mg/kg oral 90 min before MCAO, 24 h reperfusion): 28.8±2.9%
- corrected infarct volume ([5]; HO1 WT mice, EC 15 mg/kg oral 90 min before MCAO, 24 h reperfusion): 24.9±3.8%
- infarct volume ([5]; HO1 WT mice, EC 30 mg/kg after 2 h of reperfusion, 72 h, vehicle 46.6±5.3, in %): 33.5±3.2
- corrected infarct volume ([5]; HO1 WT mice, EC 30 mg/kg oral 90 min before MCAO (90 min), 24 h reperfusion, vehicle 34.2±3.4%): 20.1±2.7%
- infarction volume ([5]; HO1WT mice, EC 30 mg/kg post-treatment (3.5 h after MCAO), 72 h survival, vehicle 46.6±5.3%): 33.5±3.2%
- infarct volume ([5]; HO1−/− mice, EC 30 mg/kg 90 min before MCAO, 24 h reperfusion, vehicle 37.1±3.9%, not significant): 33.8±3.2%
- infarct volume ([5]; Nrf2 WT mice, EC 30 mg/kg 90 min before MCAO, 24 h reperfusion, vehicle 31.3±1.9%): 24.1±1.8%
- corrected infarct volume ([5]; Nrf2−/− mice, EC 30 mg/kg 90 min before MCAO, 24 h reperfusion, vehicle 44.8±4.6, not significant, in %): 43.0±2.4
